Patent US20020193424A1, “Human cancerous cell anti-proliferation and survival inhibition agent” (priority 2000, published 2002)

Legend:
[1] = tested on: Human prostate carcinoma DU145 cells; test: FBS-stimulated cell growth of DU145 cells (total cell number, Coulter Counter); type: cell-based; details: 10% FBS, 50, 100 and 200 micromolars, counted at 48 and 72 hours, compared with control and silymarin
Method: (§1) 1. Cells and Culture Conditions. Human prostate carcinoma DU145 cells were obtained from American Type Culture Collection (Bethesda, Md.), and cultured in RPMI 1640 containing 10% fetal bovine serum (FBS) and 1% penicillin-streptomycin under standard culture conditions. Alternatively, DU145 cells were cultured in 10% charcoal/dextran stripped FBS (cFBS) and 1% penicillin-streptomycin in the presence or absence of 1 nM DHT.
(§2) Silymarin and Silibinin derivatives were dissolved in ethanol for all the treatments. […] The dose and time of silibinin derivatives treatment are depicted in the associated drawings.
(§3) 2. Results. Referring to FIGS. 3 through 6, for the studies assessing the effect of silibinin derivatives on FBS-stimulated cell growth and cell death, DU145 cells were plated at 1×10^5 cells per 60 mm plate in RPMI 1640 containing 10% FBS and treated with either ethanol alone or varying concentrations of silymarin (“Si”) and silibinin derivatives (“D1” and “D2”) (50, 100 and 200 micromolars). Cells were counted at 48 and 72 hours after treatment with the subject compounds.
(§4) At the counting intervals, cells were trypsinized and collected in counting vials. Each plate was washed thoroughly with isotonic buffer containing 0.1% formalin and washings were collected in the original vials with trypsinized cells. Each vial was counted using Coulter Counter to determine the total cell number.

[2] = tested on: Human prostate carcinoma DU145 cells; test: Percent cell death of DU145 cells; type: cell-based; details: 10% FBS, 50, 100 and 200 micromolars, 48 and 72 hours, compared with control and silymarin
Method: as §1, §2, §3, §4

[3] = human, in vivo; cited from earlier work

Row | Substance | inhibition of cell growth [1] | percentage of cell death [2] | tolerability / adverse effects [3]
1 | 2,3-Dihydro-3-[3,4-dimethoxyphenyl]-2-[hydroxymethyl]-5,7-dimethoxy-4-oxobenzopyran-2-yl]benzodioxin [Derivative #1] | remarkably improved inhibition of cell growth over the control and silymarin | likewise improved percentage of cell death | 
2 | Silymarin |  |  | well tolerated and largely free of adverse effects
